Assay results taken from the supplement of paper PMC10307832.

Key:
Assay in all cases: relative viability (nuclei count vs DMSO), 5 days (fraction); higher = more cells survive
[1] = tested on: NCI-H1650
Summary of the method: (§1)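 Values are medians from duplicate plates. Each reflects relative viability, defined as the nuclei count of treated wells over that of vehicle wells. Lung cancer cell lines in 1536-well plates were pin-tool dosed one day after seeding with one drug alone or with a fixed anchor-drug dose plus five library-drug doses (not always all listed) in √10 steps, then fixed, stained and imaged at 4× after 5 days.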

[2] = tested on: NCI-H1793
Summary of the method: as §1

[3] = tested on: NCI-H2228
Summary of the method: as §1

[4] = tested on: NCI-H2347
Summary of the method: as §1

[5] = tested on: NCI-H23
Summary of the method: as §1

[6] = tested on: NCI-H460
Summary of the method: as §1

[7] = tested on: NCI-H596
Summary of the method: as §1

[8] = tested on: NCI-H727
Summary of the method: as §1

[9] = tested on: PC-14
Summary of the method: as §1

[10] = tested on: PC-3 [JPC-3]
Summary of the method: as §1

[11] = tested on: SW 1573
Summary of the method: as §1

[12] = tested on: SW 900
Summary of the method: as §1

SMILES: O=c1cc(N2CCOCC2)oc2c(-c3cccc4c3sc3ccccc34)cccc12 + COc1cccc2cc(-c3nc([C@H]4CC[C@H](C(=O)O)CC4)n4ncnc(N)c34)[nH]c12 [OSI-027] (partner 0.5 µM)
- relative viability ([1]; first compound 0.03162 µM): 0.631
- relative viability ([1]; first compound 0.1 µM): 0.535
- relative viability ([1]; first compound 0.3162 µM): 0.769
- relative viability ([1]; first compound 1 µM): 0.592
- relative viability ([2]; first compound 0.01 µM): 0.33
- relative viability ([2]; first compound 0.1 µM): 0.287
- relative viability ([2]; first compound 0.3162 µM): 0.251
- relative viability ([2]; first compound 1 µM): 0.247
- relative viability ([3]; first compound 0.01 µM): 0.677
- relative viability ([3]; first compound 0.03162 µM): 0.775
- relative viability ([3]; first compound 0.1 µM): 0.558
- relative viability ([3]; first compound 0.3162 µM): 0.605
- relative viability ([3]; first compound 1 µM): 0.548
- relative viability ([4]; first compound 0.01 µM): 0.503
- relative viability ([4]; first compound 0.03162 µM): 0.392
- relative viability ([4]; first compound 0.1 µM): 0.522
- relative viability ([4]; first compound 0.3162 µM): 0.42
- relative viability ([4]; first compound 1 µM): 0.461
- relative viability ([5]; first compound 0.01 µM): 0.641
- relative viability ([5]; first compound 0.03162 µM): 0.633
- relative viability ([5]; first compound 0.3162 µM): 0.757
- relative viability ([5]; first compound 1 µM): 0.723
- relative viability ([6]; first compound 0.01 µM): 0.659
- relative viability ([6]; first compound 0.03162 µM): 0.717
- relative viability ([6]; first compound 0.1 µM): 0.683
- relative viability ([6]; first compound 0.3162 µM): 0.68
- relative viability ([6]; first compound 1 µM): 0.653
- relative viability ([7]; first compound 0.01 µM): 0.738
- relative viability ([7]; first compound 0.03162 µM): 0.747
- relative viability ([7]; first compound 0.1 µM): 0.493
- relative viability ([7]; first compound 0.3162 µM): 0.828
- relative viability ([7]; first compound 1 µM): 0.722
- relative viability ([8]; first compound 0.01 µM): 0.498
- relative viability ([8]; first compound 0.03162 µM): 0.567
- relative viability ([8]; first compound 0.1 µM): 0.473
- relative viability ([8]; first compound 0.3162 µM): 0.592
- relative viability ([8]; first compound 1 µM): 0.659
- relative viability ([9]; first compound 0.01 µM): 0.954
- relative viability ([9]; first compound 0.03162 µM): 0.858
- relative viability ([9]; first compound 0.1 µM): 0.74
- relative viability ([9]; first compound 0.3162 µM): 1.04
- relative viability ([9]; first compound 1 µM): 0.795
- relative viability ([10]; first compound 0.01 µM): 0.762
- relative viability ([10]; first compound 0.03162 µM): 0.768
- relative viability ([10]; first compound 0.1 µM): 0.644
- relative viability ([10]; first compound 0.3162 µM): 0.738
- relative viability ([10]; first compound 1 µM): 0.825
- relative viability ([11]; first compound 0.01 µM): 0.675
- relative viability ([11]; first compound 0.03162 µM): 0.709
- relative viability ([11]; first compound 0.1 µM): 0.678
- relative viability ([11]; first compound 0.3162 µM): 0.615
- relative viability ([11]; first compound 1 µM): 0.737
- relative viability ([12]; first compound 0.01 µM): 0.565
- relative viability ([12]; first compound 0.03162 µM): 0.572
- relative viability ([12]; first compound 0.1 µM): 0.311
- relative viability ([12]; first compound 0.3162 µM): 0.69
- relative viability ([12]; first compound 1 µM): 0.545
